Measurements as given in patent US7429460B2, “Methods of screening for inhibitors of phospholipid synthesis related to glycolipid-storage diseases” (Yeda Research and Development Co., Ltd., priority 2003, dated 2008).

Columns and labels:
[1] = test system: rat hippocampal neurons; assay: Labeling of neuronal lipids with [14C]methyl choline; format: cell-based; conditions: after 4-days of treatment, remained elevated for at least 8-days
Experimental: Neurons were incubated for 48 h with 1 μCi [^14C]methyl choline/ml of culture medium. Subsequently, medium was removed and the neurons were washed 3-times with phosphate-buffered saline. Neurons were removed from the cover slips by scraping with a rubber policeman into 2 ml of cold methanol, and then sonicated. Part of the resulting suspension was used for lipid analysis, part for analysis of the incorporation of total radioactivity into the cells, and part for DNA analysis (see below).
Lipids were extracted by addition of chloroform to obtain a final chloroform/methanol ratio of 1:1 (v/v). The lower phase was dried under N2 and the upper phase was kept for analysis of [^14C]methyl choline incorporation into water-soluble metabolites. […] One ml of methanol and 5 ml of Optima Gold scintillation fluid (Packard, Downers Groove, Ill.) were added to each vial for scintillation counting, and radioactivity was determined in a Packard 2100 beta radiospectrometer equipped with the Transformed Spectral Index of the External Standard/Automatic Efficiency Control (tSIE/AEC) program for quench correction and counting of double radiolabeled samples.

[2] = test system: human macrophages; assay: PC synthesis in macrophage cultures; format: cell-based; conditions: 500 μM CBE for 6 days
Experimental: Human macrophages were obtained from healthy donors. Blood samples were immediately diluted 2.5 times with PBS pH 7.4 and layered on 3 ml Ficoll Histopaque 1.077 in conical tubes. The tubes were then centrifuged at 400 g for 25 min. The peripheral blood mononuclear leukocyte (PBL) band at the PBS-plasma/Ficoll interface was taken for further analyses. PBL were washed twice with PBS pH 7.4, and resuspended in 5 ml of RPMI 1640 containing 10% fetal calf serum. An aliquot of the cell suspension was used to assess cell viability using the exclusion trypan-blue test. The cell suspension was adjusted to a final concentration of 6*10^6 cells/ml and incubated for 3 hours at 37° C. in a plastic Petri dish (Falcon). Non adherent cell suspension (mononuclear leukocytes) was then transferred to a culture flask while the adherent cells (mainly macrophages) were cultured separately in RPMI 1640 supplemented with 10% fetal calf serum, 2 mM L-glutamine, 100 U/ml penicillin and 0.1 mg/ml streptomycin. The cells were cultured in separate cultures with or without 500 μM CBE for 5 days; on day 5, PMA was added to the macrophage suspension (final concentration: 10 ng/ml) to allow full differentiation. […] The cells were thoroughly washed with non-radioactive medium and lipids were further extracted and analyzed as described herein above. […]

[3] = test system: CTP:phosphocholine cytidylyltransferase (CCT); assay: CCT assay in homogenates of treated hippocampal neurons; format: cell-based, rat; conditions: neurons incubated with 500 μM CBE for 4- or 8-days
Experimental: Neurons from individual cover slips were washed twice with ice-cold phosphate-buffered saline, and cells removed by scraping into 300 μl of buffer containing 50 mM imidazole, 2 mM EDTA, 150 mM KCl, 6 mM ADP, 0.2 mM phenylmethylsulfonylfluoride, 1 μg/ml pepstatin and 1 μg/ml leupeptin. After brief sonication, an aliquot was removed for DNA determination and 100 μl was used for the CCT assay.
CCT was assayed as described (Weinhold P A and Feldman D A. 1992. Choline-phosphate cytidylyltransferase. Methods Enzymol. 209, 248-258), with some minor modifications. The assay was performed in a final volume of 200 μl containing 1.6 mM phosphorylcholine/0.25 μCi [^14C]methyl phosphorylcholine, 3 mM CTP, 12 mM magnesium acetate, and DOPC liposomes with or without oleic acid and GicCer or GalCer, as indicated in the figure legends. Liposomes were prepared by sonicating resuspended lipids in the assay buffer at room temperature for 3 min using a sonicator (Sonics & Materials Inc., Newtown, Conn.) fitted with a micro-tip probe set to 750 W output, using 25% of the maximal amplitude and with pulsations of 9.0 sec every 9.2 sec, which gave a translucent liposome preparation with no precipitates. The final concentration of DOPC and oleic acid in the liposomes was 500 μM each. […]

[4] = test system: rat hippocampal neurons; conditions: 200 μM CBE, after 3 days in culture; cited from earlier work
[5] = test system: rat hippocampal neurons; conditions: 500 μM CBE for 4- or 8-days; cited from earlier work

SMILES: O[C@H]1[C@H](O)[C@@H](O)[C@@H]2O[C@@H]2[C@@H]1O (racemic) [CBE, conduritol-B-epoxide]
- [14C]methyl choline incorporation into [14C]SM and [14C]PC [1]: significant increase
- [14C]-PC in treated macrophages [2]: dramatic increase
- elevation of CCT activity [3]: 2-3 fold
- axons longer than untreated counterparts [4]: ~20%
- increase in the rate of incorporation of [3H]dihydrosphingosine into [3H]GlcCer [5]: 4-5 fold
